Our source for the IC50 values is US20240043427A1 (Gilead Sciences, Inc., priority 2020, published 2024).

CD73, sequence (P21589 27-574): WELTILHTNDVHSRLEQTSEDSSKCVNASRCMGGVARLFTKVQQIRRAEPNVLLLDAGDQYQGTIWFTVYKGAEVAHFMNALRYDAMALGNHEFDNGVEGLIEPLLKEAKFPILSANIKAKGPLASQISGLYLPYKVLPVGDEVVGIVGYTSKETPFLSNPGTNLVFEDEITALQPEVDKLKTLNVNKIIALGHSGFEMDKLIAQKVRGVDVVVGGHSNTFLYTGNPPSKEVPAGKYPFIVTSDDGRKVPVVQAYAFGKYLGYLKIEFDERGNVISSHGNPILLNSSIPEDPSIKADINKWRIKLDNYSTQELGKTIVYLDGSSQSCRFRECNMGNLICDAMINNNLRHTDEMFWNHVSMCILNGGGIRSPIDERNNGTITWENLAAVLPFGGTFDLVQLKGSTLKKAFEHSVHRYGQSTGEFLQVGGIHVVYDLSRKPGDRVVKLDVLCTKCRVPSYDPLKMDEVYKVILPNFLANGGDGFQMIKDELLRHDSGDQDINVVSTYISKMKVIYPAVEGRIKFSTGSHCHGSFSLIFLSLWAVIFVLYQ

This assay concerns the target CD73 (Homo sapiens (Human), UniProt P21589). The assay is classed as biochemical. The following applies: 1 mM NaH2PO4 in enzyme buffer, CD73 0.3 nM, AMP 15 uM.
By IC50 is commonly meant the point on the concentration scale where inhibition reaches its midpoint. On to `O=c1[nH]cc(-c2cc([C@H]3C[C@@H]3c3cnn(C(F)F)c3)c3ncc(F)n3n2)c(=O)[nH]1` (racemic) [Example 370, 5-(8-((1S,2S)-2-(1-(difluoromethyl)-1H-pyrazol-4-yl)cyclopropyl)-3-fluoroimidazo[1,2-b]pyridazin-6-yl)pyrimidine-2,4(1H,3H)-dione], for which the half-maximal inhibitory concentration (IC50) was 4.02 nM.

Regarding `O=c1[nH]cc(-c2cc([C@H]3C[C@@H]3c3cc4c(ccn4CC(F)(F)F)cn3)c3nccn3n2)c(=O)[nH]1` (racemic) [Example 127, 5-(8-((1S,2S)-2-(1-(2,2,2-trifluoroethyl)-1H-pyrrolo[3,2-c]pyridin-6-yl)cyclopropyl)imidazo[1,2-b]pyridazin-6-yl)pyrimidine-2,4(1H,3H)-dione], the IC50 was found to be 1.13 nM. The figure for `Cn1cc([C@H]2C[C@@H]2c2cc(-c3c[nH]c(=O)[nH]c3=O)nn3ccnc23)ccc1=O` (racemic) [Example 184, 5-(8-((1S,2S)-2-(1-methyl-6-oxo-1,6-dihydropyridin-3-yl)cyclopropyl)imidazo[1,2-b]pyridazin-6-yl)pyrimidine-2,4(1H,3H)-dione] is 2.86 nM; for `CC1(C)CN(C(=O)c2ccc([C@H]3C[C@@H]3c3cc(-c4c[nH]c(=O)[nH]c4=O)nn4ccnc34)cc2)C1` (racemic) [Example 293, 5-(8-((1S,2S)-2-(4-(3,3-dimethylazetidine-1-carbonyl)phenyl)cyclopropyl)imidazo[1,2-b]pyridazin-6-yl)pyrimidine-2,4(1H,3H)-dione] it is 4.75 nM. The figure for `O=c1[nH]cc(-c2cc(N3CCC(CC(F)F)C3)c3nccn3n2)c(=O)[nH]1` (racemic) [Example 453, 5-(8-(3-(2,2-difluoroethyl)pyrrolidin-1-yl)imidazo[1,2-b]pyridazin-6-yl)pyrimidine-2,4(1H,3H)-dione] is 76 nM. Compound `O=c1[nH]cc(-c2cc([C@H]3C[C@@H]3c3nc4ccccc4[nH]3)c3nccn3n2)c(=O)[nH]1` (racemic) [Example 461, 5-(8-((1S,2S)-2-(1H-benzo[d]imidazol-2-yl)cyclopropyl)imidazo[1,2-b]pyridazin-6-yl)pyrimidine-2,4(1H,3H)-dione] yielded an IC50 of 2.56 nM.

For `N#Cc1ccc([C@H]2C[C@@H]2c2cc(-c3c[nH]c(=O)[nH]c3=O)nn3ccnc23)nc1` (racemic) [Example 155, 6-((1S,2S)-2-(6-(2,4-dioxo-1,2,3,4-tetrahydropyrimidin-5-yl)imidazo[1,2-b]pyridazin-8-yl)cyclopropyl)nicotinonitrile], the IC50 came to 2.04 nM. Under `O=C(c1ccc([C@H]2C[C@@H]2c2cc(-c3c[nH]c(=O)[nH]c3=O)nn3ccnc23)cc1)N1CC(F)(F)C1` (racemic) [Example 292, 5-(8-((1S,2S)-2-(4-(3,3-difluoroazetidine-1-carbonyl)phenyl)cyclopropyl)imidazo[1,2-b]pyridazin-6-yl)pyrimidine-2,4(1H,3H)-dione] stands 2.08 nM; under `CNC(=O)c1ccc([C@H]2C[C@@H]2c2cc(-c3c[nH]c(=O)[nH]c3=O)nn3c(F)cnc23)cc1` (racemic) [Example 312, 4-((1S,2S)-2-(6-(2,4-dioxo-1,2,3,4-tetrahydropyrimidin-5-yl)-3-fluoroimidazo[1,2-b]pyridazin-8-yl)cyclopropyl)-N-methylbenzamide], 1.29 nM.

`O=C1N(CC(F)(F)F)c2cc([C@H]3C[C@@H]3c3cc(-c4c[nH]c(=O)[nH]c4=O)nn4c(Cl)cnc34)ccc2C12CC2` [Example 740, 5-(3-chloro-8-((1S,2S)-2-(2′-oxo-1′-(2,2,2-trifluoroethyl)spiro[cyclopropane-1,3′-indolin]-6′-yl)cyclopropyl)imidazo[1,2-b]pyridazin-6-yl)pyrimidine-2,4(1H,3H)-dione] had an IC50 of 0.61 nM.

`CC(C)(O)[C@H]1C[C@@H]1c1cc(-c2c[nH]c(=O)[nH]c2=O)nn2ccnc12` (racemic) [Example 463, 5-(8-((1S,2S)-2-(2-hydroxypropan-2-yl)cyclopropyl)imidazo[1,2-b]pyridazin-6-yl)pyrimidine-2,4(1H,3H)-dione] gave an IC50 of 61.9 nM. `O=c1[nH]cc(-c2cc([C@H]3C[C@@H]3c3ncc(C(F)(F)F)s3)c3nccn3n2)c(=O)[nH]1` (racemic) [Example 364, 5-(8-((1S,2S)-2-(5-(trifluoromethyl)thiazol-2-yl)cyclopropyl)imidazo[1,2-b]pyridazin-6-yl)pyrimidine-2,4(1H,3H)-dione] had a half-inhibitory concentration (IC50) of 7.17 nM. For `O=c1[nH]cc(-c2cc([C@H]3C[C@@H]3c3c(F)ccc(F)c3F)c3nccn3n2)c(=O)[nH]1` (racemic) [Example 468, 5-(8-((1S,2S)-2-(2,3,6-trifluorophenyl)cyclopropyl)imidazo[1,2-b]pyridazin-6-yl)pyrimidine-2,4(1H,3H)-dione], the midpoint of inhibition, the IC50, lay at 1.67 nM. In turn, `O=c1[nH]cc(-c2cc([C@H]3C[C@@H]3c3ccc4cnn(CC5CC5)c4c3)c3nccn3n2)c(=O)[nH]1` (racemic) [Example 130, 5-(8-((1S,2S)-2-(1-(cyclopropylmethyl)-1H-indazol-6-yl)cyclopropyl)imidazo[1,2-b]pyridazin-6-yl)pyrimidine-2,4(1H,3H)-dione] came in with an IC50 of 1.01 nM. Under `N#Cc1cncc([C@H]2C[C@@H]2c2cc(-c3c[nH]c(=O)[nH]c3=O)nn3ccnc23)c1` (racemic) [Example 311, 5-((1S,2S)-2-(6-(2,4-dioxo-1,2,3,4-tetrahydropyrimidin-5-yl)imidazo[1,2-b]pyridazin-8-yl)cyclopropyl)nicotinonitrile] stands 4.72 nM; under `O=c1[nH]cc(-c2cc([C@H]3C[C@@H]3c3ccc4c(c3)OC(F)(F)O4)c3nccn3n2)c(=O)[nH]1` (racemic) [Example 360, 5-(8-((1S,2S)-2-(2,2-difluorobenzo[d][1,3]dioxol-5-yl)cyclopropyl)imidazo[1,2-b]pyridazin-6-yl)pyrimidine-2,4(1H,3H)-dione], 0.92 nM; under `O=c1[nH]cc(-c2cc([C@H]3C[C@@H]3c3ccc4cnccc4c3)c3nccn3n2)c(=O)[nH]1` (racemic) [Example 156, 5-(8-((1S,2S)-2-(isoquinolin-6-yl)cyclopropyl)imidazo[1,2-b]pyridazin-6-yl)pyrimidine-2,4(1H,3H)-dione], 0.95 nM. Under `CCOC(=O)c1cn2nc(-c3c[nH]c(=O)[nH]c3=O)cc([C@H]3C[C@@H]3c3ccc(F)cc3)c2n1` (racemic) [Example 172, ethyl 6-(2,4-dioxo-1,2,3,4-tetrahydropyrimidin-5-yl)-8-((1S,2S)-2-(4-fluorophenyl)cyclopropyl)imidazo[1,2-b]pyridazine-2-carboxylate] stands 13.9 nM; under `COC(=O)c1ccc([C@H]2C[C@@H]2c2cc(-c3c[nH]c(=O)[nH]c3=O)nn3ccnc23)cc1` (racemic) [Example 281, methyl 4-((1S,2S)-2-(6-(2,4-dioxo-1,2,3,4-tetrahydropyrimidin-5-yl)imidazo[1,2-b]pyridazin-8-yl)cyclopropyl)benzoate], 1.54 nM; under `O=c1[nH]cc(-c2cc(N3CC(Oc4ccc(C(F)(F)F)cn4)C(F)(F)C3)c3ncnn3n2)c(=O)[nH]1` (racemic) [Example 432, 5-(8-(3,3-difluoro-4-((5-(trifluoromethyl)pyridin-2-yl)oxy)pyrrolidin-1-yl)-[1,2,4]triazolo[1,5-b]pyridazin-6-yl)pyrimidine-2,4(1H,3H)-dione], 0.15 nM. `O=C(c1cccc([C@H]2C[C@@H]2c2cc(-c3c[nH]c(=O)[nH]c3=O)nn3ccnc23)c1)N1C[C@@H](F)[C@@H](F)C1` (racemic) [Example 302, 5-(8-((1S,2S)-2-(3-((3S,4R)-3,4-difluoropyrrolidine-1-carbonyl)phenyl)cyclopropyl)imidazo[1,2-b]pyridazin-6-yl)pyrimidine-2,4(1H,3H)-dione] returned an IC50 of 3.08 nM.

Turning to `CC1(C)C(=O)N(CC(F)(F)F)c2cc([C@H]3C[C@@H]3c3cc(-c4c[nH]c(=O)[nH]c4=O)nn4c(Cl)cnc34)ccc21` (racemic) [Example 212, 5-[3-chloro-8-[(1S,2S)-2-[3,3-dimethyl-2-oxo-1-(2,2,2-trifluoroethyl)indolin-6-yl]cyclopropyl]imidazo[1,2-b]pyridazin-6-yl]-1H-pyrimidine-2,4-dione], half-maximal inhibition (IC50) required 1.24 nM. Under `O=c1[nH]cc(-c2cc([C@H]3C[C@@H]3c3ccncc3F)c3nccn3n2)c(=O)[nH]1` (racemic) [Example 161, 5-(8-((1S,2S)-2-(3-fluoropyridin-4-yl)cyclopropyl)imidazo[1,2-b]pyridazin-6-yl)pyrimidine-2,4(1H,3H)-dione] stands 4.48 nM; under `O=c1[nH]cc(-c2cc([C@H]3C[C@@H]3c3ccc4c(F)nn(CC(F)(F)F)c4c3)c3nccn3n2)c(=O)[nH]1` (racemic) [Example 117, 5-(8-((1S,2S)-2-(3-fluoro-1-(2,2,2-trifluoroethyl)-1H-indazol-6-yl)cyclopropyl)imidazo[1,2-b]pyridazin-6-yl)pyrimidine-2,4(1H,3H)-dione], 0.89 nM.

`O=C(c1cccc([C@H]2C[C@@H]2c2cc(-c3c[nH]c(=O)[nH]c3=O)nn3ccnc23)c1)N1CCC1` (racemic) [Example 294, 5-(8-((1S,2S)-2-(3-(azetidine-1-carbonyl)phenyl)cyclopropyl)imidazo[1,2-b]pyridazin-6-yl)pyrimidine-2,4(1H,3H)-dione] yielded an IC50 of 1.02 nM. The figure for `CN(C)C(=O)c1cccc([C@H]2C[C@@H]2c2cc(-c3c[nH]c(=O)[nH]c3=O)nn3ccnc23)c1` (racemic) [Example 287, 3-((1S,2S)-2-(6-(2,4-dioxo-1,2,3,4-tetrahydropyrimidin-5-yl)imidazo[1,2-b]pyridazin-8-yl)cyclopropyl)-N,N-dimethylbenzamide] is 3.9 nM; for `O=C(c1cccc([C@H]2C[C@@H]2c2cc(-c3c[nH]c(=O)[nH]c3=O)nn3ccnc23)c1)N1CC(F)(F)C1` (racemic) [Example 297, 5-(8-((1S,2S)-2-(3-(3,3-difluoroazetidine-1-carbonyl)phenyl)cyclopropyl)imidazo[1,2-b]pyridazin-6-yl)pyrimidine-2,4(1H,3H)-dione] it is 1.51 nM.
